Experimental findings from article PMC7666214, “Kinetic insights into the peroxygenase activity of cellulose-active lytic polysaccharide monooxygenases (LPMOs)” (Nature Communications, 2020) are described below.

In this assay the target is T1, HRP (Armoracia rusticana, UniProt P00433).
T1 construct: gene PRXC1A; commercial horseradish peroxidase, used as purchased
T1 sequence (P00433 31-338): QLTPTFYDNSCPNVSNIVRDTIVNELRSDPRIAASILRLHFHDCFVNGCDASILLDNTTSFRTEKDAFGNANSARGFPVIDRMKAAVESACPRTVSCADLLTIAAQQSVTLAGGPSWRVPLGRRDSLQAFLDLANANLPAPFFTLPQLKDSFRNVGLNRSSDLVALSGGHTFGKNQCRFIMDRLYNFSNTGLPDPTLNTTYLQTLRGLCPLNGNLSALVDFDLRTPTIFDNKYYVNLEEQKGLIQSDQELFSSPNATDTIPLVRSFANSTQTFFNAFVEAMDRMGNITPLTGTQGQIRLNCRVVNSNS
The assay can be described thus: absorbance at […] nm (resorufin). In kind it is biochemical. The following applies: H2O2 co-substrate, Bis-Tris 50 mM pH 6.1, 25 °C; ping-pong.

Structures are written as SMILES.

With `CC(=O)N1c2ccc(O)cc2Oc2cc(O)ccc21` [AR, N-acetyl-3,7-dihydroxyphenoxazine], the “absorbance at 570 nm (resorufin)” value is recorded as “The kinetics of HRP with the AR substrate was consistent with the ping-pong mechanism”.
